Measured values from publication PMC5803236 (Scientific Reports, 2018).

Columns and labels:
[1] = biological target: T1, hemagglutinin (HA) of H1N1 A/Puerto Rico/8/1934 (Influenza A virus (A/Puerto Rico/8/1934(H1N1)), UniProt P03452); assay type: cell-based
T1 construct: native HA on whole virus (virus antigen, 4 HAU); not purified protein

[2] = biological target: hemagglutinin (HA) of H1N1 A/Korea/01/2009 (Pandemic) (Influenza A virus (A/Korea/01/2009(H1N1)), UniProt C5MQE6)

`CC(=O)N[C@H]1[C@H]([C@H](O)[C@H](O)CO)O[C@@](OC[C@H]2O[C@@H](O[C@H]3[C@H](O)[C@@H](O)C(O)O[C@@H]3CO)[C@H](O)[C@@H](O)[C@H]2O)(C(=O)O)C[C@@H]1O` (some centres unmarked) [6′-sialyllactose] was tested. Which MIC [1] did it give?
Its MIC is greater than 200 mM.

And the MIC [2]?
The MIC was greater than 200 mM.
